Measured values taken from PubChem BioAssay (NCI).
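Five compound concentrations were applied to cells in 96-well plates for 48 hours; endpoints were derived by simple linear interpolation of the resulting dose-response curve. At the TGI there is no net growth.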

Tests used:
Assay in all cases: NCI-60 cell line screen, 48 h
HCT-116 colon = tested on: HCT-116 colon
HS 578T breast = tested on: HS 578T breast
MDA-MB-231 breast = tested on: MDA-MB-231 breast
MOLT-4 leukemia = tested on: MOLT-4 leukemia
NCI-H226 lung = tested on: NCI-H226 lung
OVCAR-3 ovarian = tested on: OVCAR-3 ovarian
SN12C renal = tested on: SN12C renal
TK-10 renal = tested on: TK-10 renal
UACC-257 melanoma = tested on: UACC-257 melanoma
UACC-62 melanoma = tested on: UACC-62 melanoma

SMILES | TGI (HCT-116 colon) [µM] | TGI (HS 578T breast) [µM] | TGI (MDA-MB-231 breast) [µM] | TGI (MOLT-4 leukemia) [µM] | TGI (NCI-H226 lung) [µM] | TGI (OVCAR-3 ovarian) [µM] | TGI (SN12C renal) [µM] | TGI (TK-10 renal) [µM] | TGI (UACC-257 melanoma) [µM] | TGI (UACC-62 melanoma) [µM]
Cn1c(=O)c2[nH]cnc2n(C)c1=O | > 100 | > 100 | > 100 | > 100 | > 100 | > 100 | > 100 | > 100 | > 100 | –
CN(NC(=O)/C(=C/C=C/c1ccccc1)NC(=O)c1ccccc1)C1=C(Cl)C(=O)[N+](c2ccccc2)=CC1 | 45.7 | > 100 | 37.5 | 81.9 | 37.7 | 44.9 | 66 | > 100 | > 100 | –
CNc1ccc([N+](=O)[O-])cc1C(=O)N1CCC[C@H]1CO | > 100 | > 100 | > 100 | > 100 | > 100 | – | > 100 | > 100 | > 100 | > 100
Cc1ccc(Oc2cc(C)ccc2P(=O)(O)O)cc1 | > 100 | > 100 | > 100 | > 100 | > 100 | > 100 | > 100 | > 100 | > 100 | > 100
Cc1ccc2c(=O)c3c(O)c4c(cc3n(C)c2c1)OC(C)(C)C=C4 | > 10 | > 10 | > 10 | > 10 | > 10 | > 10 | > 10 | > 10 | > 10 | > 10
Nc1ncc(Cc2nn3c(COc4ccc(Cl)cc4)nnc3s2)s1 | > 100 | > 100 | > 100 | > 100 | > 100 | > 100 | > 100 | > 100 | > 100 | > 100
CC(C)(CN1CCCCC1)C(=O)CC(SCCS(=O)(=O)O)c1ccc(Cl)c(Cl)c1 (stereo not drawn) | 10.6 | 7 | 4.82 | 8.06 | 39.1 | 6.97 | – | 18.9 | 20.8 | 10.1
NC(=O)CN1CCN(c2nc(N3CCCC3)c3nc(Cl)c(NCc4ccccc4)nc3n2)CC1 | 14.7 | 24.2 | 20.6 | 20.3 | 39.9 | 16.3 | 16.9 | 34.7 | 19.7 | 17.2
O=C(NC(Cc1c[nH]c2ccccc12)C(=O)O)/C(=C/c1ccccc1)NC(=O)c1ccccc1 (stereo not drawn) | > 100 | > 100 | > 100 | > 100 | > 100 | > 100 | > 100 | > 100 | > 100 | > 100
COc1ccc(/C=C(\C#N)c2nc(-c3cc4ccccc4oc3=O)cs2)cc1 | > 100 | > 100 | 31 | > 100 | > 100 | – | > 100 | 65.6 | > 100 | 49.3
NC(=O)Nc1n[nH]c(-c2ccccc2)n1 | > 100 | > 100 | > 100 | > 100 | > 100 | > 100 | > 100 | > 100 | > 100 | > 100
O/N=C1/CCCCC1NO (stereo not drawn) | > 100 | > 100 | > 100 | > 100 | > 100 | > 100 | > 100 | > 100 | > 100 | > 100
NC(Cc1ccccc1)C(=O)O (stereo not drawn) | > 100 | > 100 | > 100 | > 100 | > 100 | > 100 | > 100 | > 100 | > 100 | > 100
CCSc1nn(-c2c3ccccc3nc3ccccc23)c(=S)s1 | > 100 | > 100 | > 100 | > 100 | > 100 | > 100 | > 100 | > 100 | > 100 | > 100
Cc1nc2ccccc2n1CCc1nc2ccccc2[nH]1 | > 100 | > 100 | > 100 | > 100 | > 100 | > 100 | > 100 | > 100 | > 100 | > 100
Oc1cc(Br)cc2cc(Br)cnc12 | > 100 | 63.8 | 88.2 | 16.1 | 86.5 | – | 73 | > 100 | > 100 | 5.88
CCCNC(=O)Cn1c(-c2ccccc2)cc2ccccc21 | 70.4 | > 100 | > 100 | > 100 | > 100 | > 100 | > 100 | > 100 | > 100 | > 100

SMILES | TGI (HCT-116 colon) [µM] | TGI (HS 578T breast) [µM] | TGI (MDA-MB-231 breast) [µM] | TGI (MOLT-4 leukemia) [µM] | TGI (NCI-H226 lung) [µM] | TGI (OVCAR-3 ovarian) [µM] | TGI (SN12C renal) [µM] | TGI (TK-10 renal) [µM] | TGI (UACC-257 melanoma) [µM] | TGI (UACC-62 melanoma) [µM]
O=C(O)c1cc2c(cc1CC(Cc1ccccc1)C(=O)O)CCC2 (stereo not drawn) | > 100 | > 100 | > 100 | > 100 | > 100 | > 100 | > 100 | > 100 | > 100 | –
C=C1C[C@]23CC[C@@H]4C(CO)(CO)CC(=O)C[C@]4(C)[C@@H]2C(O)C[C@H]1C3 (stereo partly drawn) | > 100 | > 100 | > 100 | > 100 | > 100 | > 100 | > 100 | > 100 | > 100 | > 100
OCC1=C[C@@](COCc2ccccc2)(OCc2ccccc2)[C@@H](OCc2ccccc2)[C@@H]1OCc1ccccc1 | 47 | 87.6 | 25.4 | 8.89 | 35.3 | 27.3 | 10.3 | > 100 | 67.6 | 39
COc1ccc(C2=C(N)c3ccccc3C2=O)cc1 | > 100 | 63.9 | > 100 | > 100 | > 100 | > 100 | > 100 | > 100 | > 100 | > 100
CCCS(=O)OC1C(C2COC(C)(C)O2)OC2OC(C)(C)OC21 (stereo not drawn) | 19.4 | > 100 | 32.6 | 6.57 | 46.2 | 29.3 | 31.8 | 31.3 | 28.2 | 35.2
Clc1cccc(Cl)c1C1ON=C(c2ccccc2)N1C12CC3CC(CC(C3)C1)C2 (stereo not drawn) | 59.9 | 87.2 | > 100 | 46.3 | > 100 | 74.7 | > 100 | > 100 | 15.1 | > 100
NC(=S)NS(=O)(=O)c1ccc(Cl)cc1Cl | > 100 | > 100 | > 100 | > 100 | > 100 | > 100 | > 100 | > 100 | > 100 | > 100
Cn1c(=O)n2n(c1=O)C1C(=CC2)C2C=CC1n1c(=O)n(C)c(=O)n12 (stereo not drawn) | > 100 | > 100 | > 100 | > 100 | > 100 | > 100 | > 100 | > 100 | > 100 | > 100
Cc1cc2nnn(C3CCCO3)c2cc1C (stereo not drawn) | > 100 | > 100 | > 100 | > 100 | > 100 | > 100 | > 100 | > 100 | > 100 | > 100
Cc1ccc2c3ccc4c(c3n(C)c2c1)C(=O)C=CC4=O | 4.95 | > 10 | > 10 | 2.61 | > 10 | 8.6 | > 10 | > 10 | > 10 | > 10
COc1cc(/C=C/C=C2\CC(C)C/C(=C\C=C\c3ccc(O)c(OC)c3)C2=O)ccc1O (stereo not drawn) | > 100 | > 100 | 32.4 | 29.6 | 28 | 31.1 | > 100 | 16 | 89.7 | 26.7
CCOC(=O)C1C2C1C1C(C(=O)OCC)C21 (stereo not drawn) | > 100 | > 100 | > 100 | > 100 | > 100 | > 100 | > 100 | > 100 | > 100 | > 100
CCOC(=O)c1c(C)n(CCN2CCN(C)CC2)c2ccc(OC)cc12 | > 100 | > 100 | > 100 | 68 | 72 | > 100 | > 100 | > 100 | 31.1 | 30.7
C1CN(C23OC4(N5CCOCC5)C5C6CC(C7C6C4C72)C53)CCO1 (stereo not drawn) | > 100 | > 100 | > 100 | > 100 | > 100 | > 100 | > 100 | > 100 | > 100 | > 100
CCCCCCCCCCCOCCC1C(C(C)OCCN2CCCC2)OC2OC(C)(C)OC21 (stereo not drawn) | 3.38 | 6.93 | 3.97 | 5.93 | 24.5 | 12.3 | 7.31 | 6.6 | 3.78 | 3.28
C=C(Cl)C(=C)CCC(Cl)C(C)(C)Cl (stereo not drawn) | > 100 | > 100 | > 100 | > 100 | > 100 | > 100 | > 100 | > 100 | > 100 | > 100
CC1=C(C(=O)OC(C)C)C(c2cccc([N+](=O)[O-])c2)C(C(=O)OC(CO[N+](=O)[O-])CO[N+](=O)[O-])=C(C)N1 (stereo not drawn) | 9.36 | > 41.9 | > 20.7 | 3.76 | 30.6 | > 22.1 | > 34 | > 100 | 13.3 | 9.58
